Data on 9 compounds can be found in US20030129672A1, “Method for identifying metalloenzyme inhibitors” (priority 2001, published 2003).

Read-outs that look alike come from different tables or passages of the source.

Format in all cases: biochemical
In one test the target is MMP-13CD (Homo sapiens, UniProt P45452). The test can be described thus: Fluorigenic peptide-1 substrate based assay with and without acetohydroxamic acid, MMP-13CD. The settings on record: for IC50: MMP-13CD, FP1 substrate. As to the method:
50 mM HEPES buffer (pH 7.0)
2% DMSO (with or without inhibitor test compound)
Alternatively, an endpoint read can also be used to determine reaction velocity provided the initial fluorescence of the solution, as recorded before addition of enzyme, is subtracted from the final fluorescence of the reaction mixture. […] This determination was done for experiments done in the presence, and experiments done in the absence, of acetohydroxamic acid. Data were fit to the equation: […]

In test [1] the target is T1, MMP-2 (Homo sapiens, UniProt P08253).
T1 sequence (P08253 110-660): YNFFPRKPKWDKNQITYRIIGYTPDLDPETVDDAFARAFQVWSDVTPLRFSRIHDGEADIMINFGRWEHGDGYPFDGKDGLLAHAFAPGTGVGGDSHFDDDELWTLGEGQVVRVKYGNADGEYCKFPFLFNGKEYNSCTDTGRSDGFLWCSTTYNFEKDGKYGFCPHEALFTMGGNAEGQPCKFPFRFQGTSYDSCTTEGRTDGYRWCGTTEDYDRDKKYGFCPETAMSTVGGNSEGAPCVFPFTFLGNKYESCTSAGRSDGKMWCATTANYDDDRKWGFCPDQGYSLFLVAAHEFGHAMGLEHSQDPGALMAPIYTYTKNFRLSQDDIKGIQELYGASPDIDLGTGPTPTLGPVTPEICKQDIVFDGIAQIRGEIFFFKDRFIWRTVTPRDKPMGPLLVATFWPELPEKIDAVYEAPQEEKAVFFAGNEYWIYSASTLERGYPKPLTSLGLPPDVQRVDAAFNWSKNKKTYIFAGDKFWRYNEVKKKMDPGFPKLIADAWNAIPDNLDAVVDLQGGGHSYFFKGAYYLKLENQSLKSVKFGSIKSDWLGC
The test is described as follows: Fluorigenic peptide-1 substrate based assay with and without acetohydroxamic acid, MMP-2. The settings on record: MMP 2FL, FP1 substrate.

The next test deals with MMP-9 (Homo sapiens, UniProt P14780). The test is described as follows: Fluorigenic peptide-1 substrate based assay with and without acetohydroxamic acid, MMP-9. The settings on record: MMP 9FL, FP1 substrate.
MMP-9, sequence (P14780 94-707, species assumed): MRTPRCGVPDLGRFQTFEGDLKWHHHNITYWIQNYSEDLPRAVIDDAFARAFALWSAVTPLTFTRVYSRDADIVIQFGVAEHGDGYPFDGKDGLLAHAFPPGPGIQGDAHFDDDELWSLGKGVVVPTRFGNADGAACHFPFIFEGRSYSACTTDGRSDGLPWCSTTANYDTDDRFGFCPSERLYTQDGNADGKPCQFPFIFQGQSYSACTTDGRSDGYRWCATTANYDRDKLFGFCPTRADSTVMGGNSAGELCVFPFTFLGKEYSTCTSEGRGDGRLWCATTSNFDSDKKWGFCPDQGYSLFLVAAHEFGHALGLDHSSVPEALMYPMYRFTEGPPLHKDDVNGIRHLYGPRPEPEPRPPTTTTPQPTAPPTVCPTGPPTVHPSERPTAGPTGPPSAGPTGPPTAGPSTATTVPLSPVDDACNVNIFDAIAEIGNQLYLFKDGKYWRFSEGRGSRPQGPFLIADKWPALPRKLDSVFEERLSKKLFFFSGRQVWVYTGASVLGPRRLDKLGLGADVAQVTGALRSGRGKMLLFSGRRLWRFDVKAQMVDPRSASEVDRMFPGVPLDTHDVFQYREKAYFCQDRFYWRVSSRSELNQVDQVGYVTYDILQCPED
Test [2] addresses T1, MMP-2. The test is described as follows: Steady-state kinetics of the mechanism of inhibition of MMP-2 (FIG. 1). The settings on record: 6 concentrations from 0 nanomolar to 600 nanomolar, 1/V0 versus 1/[S].
Description: FIG. 1 is a graph that plots 1 over the initial velocity VO, which is the initial rate of product formation in a steady state kinetics assay, on the Y-axis versus 1 over concentration of substrate [S] used in the assay on the X-axis for inhibition of MMP-2 with N-[(3-phenylisoxazol-5-ylmethyl)-aminothiocarbonyl]-benzamide at 6 concentrations of from 0 nanomolar to 600 nanomolar.
In FIG. 1, 1 over the initial velocity VO, which is the initial rate of product formation in a steady state kinetics assay, is plotted on the Y-axis versus 1 over concentration of substrate [S] used in the assay on the X-axis for inhibition of MMP-2 with N-[(3-phenylisoxazol-5-ylmethyl)-aminothiocarbonyl]-benzamide at 6 concentrations of from 0 nanomolar to 600 nanomolar.
The mark [3] stands for this setting: 0 mM acetohydroxamic acid, read-out: Without AcNHOH IC50.
Where [4] appears, read: 15 mM acetohydroxamic acid (1 Kd), read-out: With AcNHOH IC50.
Where [5] appears, read: about 1 Kd of acetohydroxamic acid, read-out: With AcNHOH IC50.
The mark [6] stands for this setting: no acetohydroxamic acid, read-out: Without AcNHOH IC50.

For the compound `Nc1ccc(-c2ccc(S(N)(=O)=O)cc2)cc1` [Entry 1], the figures for the IC50 at MMP-13CD (setting [3]) and on MMP-13CD (setting [4]) were 34 µM and 16 µM, respectively.

`NS(=O)(=O)c1ccc(-c2ccc([N+](=O)O)cc2)cc1` [Entry 2]: the half-inhibitory concentration (IC50) at MMP-13CD (setting [3]) was determined as 84 µM; at MMP-13CD (setting [4]), 3.1 µM.

For the compound `COc1ccc(NC(=O)Nc2ccc3nc(C)cc(N)c3c2)cc1` [Entry 3], the values for the IC50 at MMP-13CD (setting [3]) and at MMP-13CD (setting [4]) were 126 µM and 71 µM, respectively.

Regarding `Cc1cc(O)nc(SCc2ccc(Cl)cc2)n1` [Entry 4], the IC50 on MMP-13CD (setting [3]) was 64 µM; at MMP-13CD (setting [4]), 4.7 µM.

With `Cc1c(-c2ccc(-n3ccnc3)cc2)[nH][nH]c1=O` [Entry 5], the values for the IC50 at MMP-13CD (setting [3]) and on MMP-13CD (setting [4]) were 9.5 µM and 11 µM, respectively.

For `CCOC(=O)/C=C/c1ccc(-n2ccnc2)cc1` [Entry 6], the half-inhibitory concentration (IC50) amounted to 17 µM at MMP-13CD (setting [3]) and 14 µM at MMP-13CD (setting [4]).

Turning to `COc1ccc(C(=O)NCc2cccnc2)cc1C(=O)NCc1cccnc1` [Entry 7], the IC50 was found to be 27 µM on MMP-13CD (setting [3]) and 11 µM on MMP-13CD (setting [4]).

Consider `O=C(NC(=S)NCc1cc(-c2ccccc2)no1)c1ccccc1` [N-[(3-phenylisoxazol-5-ylmethyl)-aminothiocarbonyl]-benzamide], for which the IC50 at MMP-2 [1] (setting [5]) turned out to be 90 nM; at MMP-2 [1] (setting [6]) it was 900 nM; on MMP-9 (setting [5]) it was 1200 nM; on MMP-9 (setting [6]), 3100 nM. Also, the “Mechanism of inhibition of MMP-2 by steady-state kinetics” value on MMP-2 [2] was “uncompetitive inhibitor”.

Compound `CC(=O)NO` [acetohydroxamic acid, reference compound] displayed a Kd at MMP-13CD of 15 mM.
